This is an account of results in patent US12209081B2 (Katholieke Universiteit Leuven, priority 2020, dated 2025).

This assay deals with mouse TRPM3α2 (mTRPM3) ion channel (Mus musculus (Mouse), UniProt J9SQF3). Briefly: TRPM3 ion channel driven Ca2+ uptake, Fluo-4 AM assay, mTRPM3alpha2 overexpressing flip-in HEK293 cells stimulated with pregnenolone sulfate. It counts as cell-based. On the procedure:
Part B Monitoring the TRPM3 Ion Channel Driven Ca^2+ Uptake.
In order to monitor the inhibition of the mouse TRPM3α2 (mTRPM3) ion channel by the compounds of the invention, a cellular system making use of an mTRPM3alpha2 or hTRPM3 overexpressing cell line (flip-in HEK293) was used. The TRPM3 channel was stimulated/opened with Pregnenolone sulfate (PS) (50 μM) which results in Ca^2+ influx.
For mTRPM3, the intracellular Ca^2+ was measured with a Calcium responsive dye. Fluor-4 AM ester (Invitrogen). Cells were cultured until a confluence of 80-90%, washed with Versene (Invitrogen) and detached from the surface by a short incubation with 0.05% Trypsin (Invitrogen). The trypsination process was stopped by the addition of complete cell culture medium (DMEM, glutamax, 10% FCS,NEAA,Pen-Strep). Cells were collected and resuspended in Krebs buffer without Calcium at RT.
Prior the cell seeding (±2000 cells/well into a black, 384 well plate (Greiner)) the diluted compound was added in the assay plate, together with the PS dissolved in Krebs buffer containing Calcium. […] Directly after cell addition the plates were read on an Envision fluorescence reader (Perkin Elmer) by an Excitation of 485 nm and emission at 535 nm.
Channel inhibition was calculated compared to a non-PS stimulated control versus a condition stimulated with PS (50 μM) with vehicle. The ability of the compounds of the invention to inhibit this activity was determined as: Percentage inhibition=[1-((RFU determined for sample with test compound present—RFU determined for sample with positive control inhibitor) divided by (RFU determined in the presence of vehicle—RFU determined for sample with positive control inhibitor))]*100.

Where [1] appears, read: PS (50 μM) stimulated, cpds. 400-499.
Where [2] appears, read: PS (50 μM) stimulated, cpds. 608-666.
Where [3] appears, read: PS (50 μM) stimulated, cpds. 500-599.
[4] abbreviates: PS (50 μM) stimulated, cpds. 667-751.
The mark [5] stands for this setting: PS (50 μM) stimulated, cpd 001-199.

SMILES strings stand for the structures. A value given as a limit tells only on which side of the number the result lay.

Chain of mouse TRPM3α2 (mTRPM3) ion channel (J9SQF3 other isoform, or with tags, fused parts or gaps): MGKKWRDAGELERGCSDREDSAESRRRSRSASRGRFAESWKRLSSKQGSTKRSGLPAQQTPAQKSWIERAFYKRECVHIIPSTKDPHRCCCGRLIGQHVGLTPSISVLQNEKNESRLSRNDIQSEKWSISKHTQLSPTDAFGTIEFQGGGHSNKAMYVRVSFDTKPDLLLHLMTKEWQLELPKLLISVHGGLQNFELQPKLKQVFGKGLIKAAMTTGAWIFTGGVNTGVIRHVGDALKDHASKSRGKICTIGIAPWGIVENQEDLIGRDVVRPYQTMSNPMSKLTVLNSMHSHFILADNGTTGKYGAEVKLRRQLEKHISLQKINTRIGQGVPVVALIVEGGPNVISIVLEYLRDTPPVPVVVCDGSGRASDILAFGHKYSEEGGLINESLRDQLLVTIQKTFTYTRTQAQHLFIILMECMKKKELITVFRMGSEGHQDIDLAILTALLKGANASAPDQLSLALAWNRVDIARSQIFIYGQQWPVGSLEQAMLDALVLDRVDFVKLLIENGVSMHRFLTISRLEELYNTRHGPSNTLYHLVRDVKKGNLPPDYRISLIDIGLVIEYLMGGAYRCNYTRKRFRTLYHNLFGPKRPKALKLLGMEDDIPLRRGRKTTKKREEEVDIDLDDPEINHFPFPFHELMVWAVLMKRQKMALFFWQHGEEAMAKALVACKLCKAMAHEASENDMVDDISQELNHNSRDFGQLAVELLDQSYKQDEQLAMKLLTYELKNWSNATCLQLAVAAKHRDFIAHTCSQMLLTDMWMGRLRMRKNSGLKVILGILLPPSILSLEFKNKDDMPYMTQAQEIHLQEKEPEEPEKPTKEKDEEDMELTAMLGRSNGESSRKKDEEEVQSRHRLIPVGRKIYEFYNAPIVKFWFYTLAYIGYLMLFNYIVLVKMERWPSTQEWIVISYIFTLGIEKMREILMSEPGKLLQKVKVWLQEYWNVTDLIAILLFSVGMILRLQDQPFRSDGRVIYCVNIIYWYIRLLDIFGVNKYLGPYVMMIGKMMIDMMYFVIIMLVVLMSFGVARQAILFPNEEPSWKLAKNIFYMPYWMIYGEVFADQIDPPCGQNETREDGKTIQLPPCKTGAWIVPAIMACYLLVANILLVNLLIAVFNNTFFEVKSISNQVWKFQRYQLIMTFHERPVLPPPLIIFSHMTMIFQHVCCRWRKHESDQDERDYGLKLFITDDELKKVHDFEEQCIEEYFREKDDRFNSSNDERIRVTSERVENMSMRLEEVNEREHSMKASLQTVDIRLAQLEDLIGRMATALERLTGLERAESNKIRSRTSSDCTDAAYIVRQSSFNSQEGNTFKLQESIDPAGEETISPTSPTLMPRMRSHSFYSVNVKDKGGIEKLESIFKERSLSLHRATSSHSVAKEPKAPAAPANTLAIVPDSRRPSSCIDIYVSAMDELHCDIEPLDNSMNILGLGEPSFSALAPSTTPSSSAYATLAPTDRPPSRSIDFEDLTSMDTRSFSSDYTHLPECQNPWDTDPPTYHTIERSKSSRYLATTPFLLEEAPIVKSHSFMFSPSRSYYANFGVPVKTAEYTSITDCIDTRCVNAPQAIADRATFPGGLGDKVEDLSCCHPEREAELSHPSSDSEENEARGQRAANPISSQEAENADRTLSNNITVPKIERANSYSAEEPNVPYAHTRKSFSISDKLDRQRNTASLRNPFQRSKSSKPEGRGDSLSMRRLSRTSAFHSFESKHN

Regarding `Cc1oc2ccc(OCc3ccccn3)cc2c1C(=O)N[C@@H](C)CO` [compound 492, (S)-N-(1-hydroxypropan-2-yl)-2-methyl-5-(pyridin-2-ylmethoxy)benzofuran-3-carboxamide], the IC50 (as a rule, the concentration needed to halve the response being measured) under setting [1] was less than 1 µM.

As to `Cc1oc2ccc(OCc3ccc(O)nc3)cc2c1C(=O)NC1(CO)CCOCC1` [compound 631, N-(4-(hydroxymethyl)tetrahydro-2H-pyran-4-yl)-5-((6-hydroxypyridin-3-yl)methoxy)-2-methylbenzofuran-3-carboxamide], under setting [2], the IC50 was greater than 20 µM.

For `Cc1ncccc1COc1ccc2oc(C)c(C(=O)NC3CCNCC3(F)F)c2c1` (single isomer, unassigned) [cpd 547-En 1], the IC50 under setting [3] was less than 1 µM.

The compound `Cc1oc2ccc(OCc3ncccc3F)cc2c1C(=O)NC1CCNCC1(F)F` (single isomer, unassigned) [cpd 566-En 2] yielded an IC50 under setting [3] of 1 to 20 µM.

Take `Cc1ncsc1COc1ccc2oc(C)c(C(=O)NC(C)(C)C(=O)NCCO)c2c1` [compound 398, N-(1-((2-hydroxyethyl)amino)-2-methyl-1-oxopropan-2-yl)-2-methyl-5-((4-methylthiazol-5-yl)methoxy)benzofuran-3-carboxamide]: for the setting “PS 50 μM, cpds 300-399”, the IC50 is less than 1 µM.

Compound `Cc1oc2ccc(OCc3cccnc3C(F)(F)F)cc2c1C(=O)NC1(C(N)=O)CC1` [compound 475, N-(1-carbamoylcyclopropyl)-2-methyl-5-((2-(trifluoromethyl)pyridin-3-yl)methoxy)benzofuran-3-carboxamide] came in with an IC50 under setting [1] of less than 1 µM.

`Cc1ncsc1COc1ccc2oc(C)c(C(=O)NC(CO)C(=O)O)c2c1` (single isomer, unassigned) [cpd 270-En 1] came in with an IC50 (PS 50 μM, cpds 200-299) greater than 20 µM.

Under setting [4], `Cc1ncc(COc2ccc3oc(C(F)F)c(C(=O)N[C@@H](CO)C(N)=O)c3c2)s1` [compound 745, (S)-N-(1-amino-3-hydroxy-1-oxopropan-2-yl)-2-(difluoromethyl)-5-((2-methylthiazol-5-yl)methoxy)benzofuran-3-carboxamide] came in with an IC50 of less than 1 µM.

In the case of `Cc1oc2ccc(OCc3cccnc3C(F)(F)F)cc2c1C(=O)Nc1ccnn1C` [compound 154, 2-methyl-N-(1-methyl-1H-pyrazol-5-yl)-5-((2-(trifluoromethyl)pyridin-3-yl)methoxy)benzofuran-3-carboxamide], under setting [5], the IC50 was less than 1 µM.

`Cc1csc(COc2ccc3oc(C)c(C(=O)NC4CCNCC4(F)F)c3c2)n1` (single isomer, unassigned) [cpd 552-En 1] came in with an IC50 under setting [3] of less than 1 µM.

Under setting [1], `Cc1ncc(COc2ccc3oc(C)c(C(=O)NC(COC(F)F)C(N)=O)c3c2)s1` (single isomer, unassigned) [447-En 1, N-(1-amino-3-(difluoromethoxy)-1-oxopropan-2-yl)-2-methyl-5-((2-methylthiazol-5-yl)methoxy)benzofuran-3-carboxamide] showed an IC50 of less than 1 µM.

Under setting [2], `Cc1oc2ccc(OCc3ccnn3C)cc2c1C(=O)NC1CNCCC1(F)F` (single isomer, unassigned) [cpd 636-En 1] had an IC50 of less than 1 µM.

Regarding `Cc1oc2ccc(OCc3ccccn3)cc2c1C(=O)NC1(CO)COC1` [compound 526, N-(3-(hydroxymethyl)oxetan-3-yl)-2-methyl-5-(pyridin-2-ylmethoxy)benzofuran-3-carboxamide], the IC50 under setting [3] is less than 1 µM.

`Cc1ncsc1COc1ccc2oc(C)c(C(=O)NC3CNCC(F)(F)C3)c2c1` (single isomer, unassigned) [cpd 115-En 1] registered an IC50 under setting [5] of less than 1 µM.

As to `Cc1oc2ccc(OCc3ccncc3)cc2c1C(=O)O` [compound 004, 2-methyl-5-(pyridin-4-ylmethoxy)benzofuran-3-carboxylic acid], the IC50 under setting [5] was greater than 20 µM.

The compound `Cc1oc2ccc(OCc3ccccn3)cc2c1C(=O)NC1CCNCC1(F)F` (stereo not shown) [compound 048, N-(3,3-difluoropiperidin-4-yl)-2-methyl-5-(pyridin-2-ylmethoxy)benzofuran-3-carboxamide] returned an IC50 under setting [5] of less than 1 µM.

For `Cc1oc2ccc(OCc3nc(C(F)(F)F)cs3)cc2c1C(=O)NC1CCOC1` (stereo not shown) [compound 057, 2-methyl-N-(tetrahydrofuran-3-yl)-5-((4-(trifluoromethyl)thiazol-2-yl)methoxy)benzofuran-3-carboxamide], the half-maximal inhibitory concentration (IC50) under setting [5] is greater than 20 µM.

Regarding `Cc1oc2ccc(OCc3cccnc3N3CCC3)cc2c1C(=O)NC1(CO)CCOCC1` [compound 337, 5-((2-(azetidin-1-yl)pyridin-3-yl)methoxy)-N-(4-(hydroxymethyl)tetrahydro-2H-pyran-4-yl)-2-methylbenzofuran-3-carboxamide], the IC50 (PS 50 μM, cpds 300-399) was less than 1 µM.

In turn, `Cc1cncc(COc2ccc3oc(C)c(C(=O)N[C@H]4CCNC4)c3c2)c1` [compound 028, (S)-2-methyl-5-((5-methylpyridin-3-yl)methoxy)-N-(pyrrolidin-3-yl)benzofuran-3-carboxamide] gave an IC50 under setting [5] of less than 1 µM.

Compound `Cc1oc2ccc(OCc3cccnc3N)cc2c1C(=O)NC1(CO)CCOCC1` [compound 346, 5-((2-aminopyridin-3-yl)methoxy)-N-(4-(hydroxymethyl)tetrahydro-2H-pyran-4-yl)-2-methylbenzofuran-3-carboxamide] came in with an IC50 (PS 50 μM, cpds 300-399) of less than 1 µM.

Take `Cc1ncsc1COc1ccc2oc(C)c(C(=O)NCC3(F)CC3)c2c1` [compound 373, N-((1-fluorocyclopropyl)methyl)-2-methyl-5-((4-methylthiazol-5-yl)methoxy)benzofuran-3-carboxamide]: the IC50 (PS 50 μM, cpds 300-399) was less than 1 µM.

Turning to `Cc1ncc(COc2ccc3oc(C)c(C(=O)NC(Cn4cncn4)C(N)=O)c3c2)s1` (single isomer, unassigned) [432-En 2, N-(1-amino-1-oxo-3-(1H-1,2,4-triazol-1-yl)propan-2-yl)-2-methyl-5-((2-methylthiazol-5-yl)methoxy)benzofuran-3-carboxamide], the IC50 under setting [1] is less than 1 µM.

For the setting “PS 50 μM, cpds 200-299”, `CCOc1ncccc1COc1ccc2oc(C)c(C(=O)NC3CCNCC3(F)F)c2c1` (single isomer, unassigned) [cpd 207-En 1] displayed an IC50 of less than 1 µM.

Compound `Cc1ncsc1COc1ccc2oc(C)c(C(=O)NC3COCC3(F)F)c2c1` (single isomer, unassigned) [cpd 646-En 1] registered an IC50 under setting [2] of less than 1 µM.

`Cc1ncsc1COc1ccc2oc(C)c(C(=O)NC3CCN(CC(F)(F)F)CC3)c2c1` [compound 166, 2-methyl-5-((4-methylthiazol-5-yl)methoxy)-N-(1-(2,2,2-trifluoroethyl)piperidin-4-yl)benzofuran-3-carboxamide] had an IC50 under setting [5] of less than 1 µM.

Compound `Cc1oc2ccc(OCc3nccs3)cc2c1C(=O)N[C@@H](CO)C(N)=O` [compound 695, (S)-N-(1-Amino-3-hydroxy-1-oxopropan-2-yl)-2-methyl-5-(thiazol-2-ylmethoxy)benzofuran-3-carboxamide] had an IC50 under setting [4] of less than 1 µM.

In the case of `Cc1oc2ccc(OCc3cnnn3C)cc2c1C(=O)NC1(CO)CCOCC1` [compound 605, N-(4-(hydroxymethyl)tetrahydro-2H-pyran-4-yl)-2-methyl-5-((1-methyl-1H-1,2,3-triazol-5-yl)methoxy)benzofuran-3-carboxamide], under setting [2], the 50% inhibitory concentration (IC50) is greater than 20 µM.

Under “PS 50 μM, cpds 300-399”, `Cc1oc2ccc(OCc3ccc(F)cn3)cc2c1C(=O)NC1(CO)CCOCC1` [compound 359, 5-((5-fluoropyridin-2-yl)methoxy)-N-(4-(hydroxymethyl)tetrahydro-2H-pyran-4-yl)-2-methylbenzofuran-3-carboxamide] had an IC50 of less than 1 µM.
